In patent US8604054B2, “Triglyceride-lowering agent and hyperinsulinism-ameliorating agent” (Kowa Co., Ltd., priority 2006, dated 2013):

Tests used:
[1] = fructose-loaded rats, oral once a day for 21 days, pitavastatin 10 mg/kg, amlodipine 15 mg/kg; for plasma triglyceride level compared with the control group (FIG. 1): Dunnett's test, combination p<0.01
[2] = fructose-loaded rats, oral once a day for 21 days, pitavastatin 10 mg/kg, amlodipine 15 mg/kg; for plasma insulin level compared with the control group (FIG. 2): Dunnett's test, combination p<0.05
[3] = blood 22 hours after final administration

Row | SMILES | plasma triglyceride level compared with the control group (FIG. 1) [1] | plasma insulin level compared with the control group (FIG. 2) [2] | relative plasma triglyceride level (based on the control group) [1, 3] | relative plasma insulin level (based on the control group) [2, 3]
1 | CCOC(=O)C1=C(COCCN)NC(C)=C(C(=O)OC)C1c1ccccc1Cl (stereo not drawn) [amlodipine, amlodipine besylate] | almost equivalent to those of the control group | not significantly changed as compared with the control group |  | 
2 | O=C([O-])C[C@H](O)C[C@H](O)/C=C/c1c(C2CC2)nc2ccccc2c1-c1ccc(F)cc1.O=C([O-])C[C@H](O)C[C@H](O)/C=C/c1c(C2CC2)nc2ccccc2c1-c1ccc(F)cc1.[Ca+2] [pitavastatin, Pitavastatin calcium] | almost equivalent to those of the control group | not significantly changed as compared with the control group | 0.966 | 0.971
